System: AMPK/mTORC1 signaling in MCF-7, MDA-MB-231, and MDA-MB-436 cells
Experiment: Western blot of AMPK/mTORC1 signaling
Assay type: cell-based, human
Settings: western blot
Method: Cells were lysed in radioimmunoprecipitation assay buffer containing 50 mM Tris, pH 8.0, 150 mM NaCl, 0.1% SDS, 0.5% sodium deoxycholate, 1% NP-40, 1 mM DTT, 1 mM NaF, 1 mM sodium orthovanadate, 1 mM phenylmethylsulfonyl fluoride (PMSF; Sigma-Aldrich; Merck KGaA), and 1% protease inhibitors cocktail (EMD Millipore, Billerica, MA, USA). Protein concentration was determined using the Bradford method. Equal amounts of sample (25 µg) were separated by SDS-PAGE (8–12% gels). Electrophoresed proteins were then transferred onto polyvinylidene fluoride membranes (EMD Millipore, Billerica, MA, USA). The membranes were blocked with 5% skimmed milk in Tris-buffered saline at room temperature for 1 h. Following blocking, membranes were incubated overnight at 4°C with primary antibodies and then rinsed with Tris-buffered saline with Tween 20. The following primary antibodies were used: anti-Glut3 (1:500; catalog no. sc-74399) (Santa Cruz Biotechnology, Inc., Dallas, TX, USA); anti-LC3 (1:1000; catalog no. 12741), anti-AMPKα (1:1000; catalog no. 2532), anti-phospho-AMPKα (Thr172) (1:1000; catalog no. 2535), anti-phospho-AMPKβ1 (Ser108) (1:1000; catalog no. 4181), anti-AMPKγ1 (1:1000; catalog no. 4187), anti-mTOR (1:1000; catalog no. 2983), anti-phospho-mTOR (Ser2448) (1:1000; catalog no. 5536), anti-P70S6K (1:1000; catalog no. 9202), anti-phospho-P70S6K (Thr389) (1:1000; catalog no. 92775), anti-4E-BP1 (1:1000; catalog no. 9234), anti-phospho-4E-BP1 (Thr37/46) (1:1000; catalog no. 2855), anti-ACC (1:1000; catalog no. 3676), anti-phospho-ACC ([…]) (1:1000; catalog no. 11818), anti-Glut1 (1:1000; catalog no. 12939), anti-Glut4 (1:1000; catalog no. 2213) (All Cell Signaling Technology, Inc., Danvers, MA, USA), and anti-GAPDH (1:5000; catalog no. M20006; Abmart, Shanghai, China). Membranes were then washed, and incubated with horseradish peroxidase-conjugated secondary antibody (1:10000; E030120-01 and E030110-01; EarthOx, LLC, San Francisco, CA, USA) for 1.5 h at room temperature. The protein bands were visualized using SuperSignal® West Pico PLUS Chemiluminescent substrate (catalog no. 34579; Pierce; Thermo Fisher Scientific, Inc., Rockford, IL, USA) ([Zhang et al., 2018]).
Figure 3 Eth induces autophagy through the AMPK/mTORC1 signaling. (A): MCF-7, MDA-MB-231, or MDA-MB-436 cells were treated with increasing concentrations of Eth for 24 h. Western blot was performed using antibodies indicated. […] (D): MDA-MB-231 or MDA-MB-436 cells transfected with pQCXIP-GFP-LC3 plasmid were treated with Eth (2.0 µM) and/or CC (25 µM) for 24 h, and assessed by immunoﬂuorescence analyses. […] (G): MDA-MB-231 or MDA-MB-436 cells transfected with pQCXIP-GFP-LC3 plasmid were treated with Eth (1.0 µM or 1.6 µM) and/or Met (10 mM) for 24 h, and assessed by immunoﬂuorescence analyses. […]

CCOC1c2c(ccc3c2OCO3)-c2ccc3cc4c(cc3c2N1C)OCO4 (centres unmarked) [Eth, Ethoxysanguinarine]
phosphorylation of mTORC1 effectors (mTOR, p70S6K, and 4EBP1): decreased the phosphorylation of mTORC1 effectors
phosphorylation of AMPKα at Thr172 (dose- and time-dependent): increased
